Activity calls are given as the source filed them. The calls are words filed in the database; no cut-off is given here.
Legend:
P-glycoprotein [1] = experiment: Drug transport assessed as P-glycoprotein-mediated basolateral to apical permeability; assay type: ADME; conditions: not told; read-out: permeability
[2] = Inhibition of gamma secretase-mediated amyloid beta (1 to 42) production expressed in HEK293 cells overexpressing APP Swedish mutant after 5 hrs by immunoassay; assay type: cell-based
[3] = Drug uptake in CD rat brain at 30 mg/kg, po measured after 3 hrs; assay type: ADME, organism-based; design: dose 30 mg/kg, route oral; conditions: read-out: Drug uptake
P-glycoprotein [4] = experiment: Drug transport assessed as P-glycoprotein-mediated efflux ratio of compound transport from basolateral to apical side over apical to basolateral side; assay type: ADME; conditions: not told
Canis lupus familiaris = species: Canis lupus familiaris; experiment: Inhibition of dog gamma-secretase assessed as reduction in reduction in Hes-1 expression up to 20 uM
Mus musculus = species: Mus musculus; experiment: Inhibition of mouse gamma-secretase assessed as reduction in reduction in Hes-1 expression up to 20 uM
HEK293 = experiment: Inhibition of gamma-secretase expressed in HEK293 cells assessed as reduction in Notch cleavage up to 20 uM; assay type: cell-based
[5] = Selectivity ratio of IC50 for gamma secretase-mediated amyloid beta total production to IC50 for gamma secretase-mediated amyloid beta (1 to 42) production
Rattus norvegicus [6] = experiment: Antialzheimer activity in CD rat assessed as reduction in amyloid beta (1 to 42) CSF level at 30 mg/kg, po measured after 3 hrs; assay type: functional
[7] = Drug uptake in CD rat plasma at 30 mg/kg, po measured after 3 hrs; assay type: ADME, organism-based; design: dose 30 mg/kg, route oral
P-glycoprotein [8] = experiment: Drug transport assessed as P-glycoprotein-mediated apical to basolateral permeability; assay type: ADME; conditions: not told; read-out: permeability
Rattus norvegicus [9] = experiment: Antialzheimer activity in CD rat assessed as reduction in amyloid beta total CSF level at 30 mg/kg, po measured after 3 hrs; assay type: functional, organism-based; design: dose 30 mg/kg
Rattus norvegicus [10] = experiment: Antialzheimer activity in CD rat assessed as reduction in amyloid beta (1 to 40) CSF level at 30 mg/kg, po measured after 3 hrs; assay type: functional, organism-based; design: dose 30 mg/kg

Structure (SMILES)	Papp B→A (P-glycoprotein [1])	IC50 [2]	concentration at 3 h [3]	efflux ratio (P-glycoprotein [4])	inhibition (Canis lupus familiaris)	inhibition (Mus musculus)	inhibition (HEK293)	Ratio IC50 [5]	Activity (Rattus norvegicus [6])	concentration at 3 h [7]	Papp A→B (P-glycoprotein [8])	inhibition (Rattus norvegicus [9])	inhibition (Rattus norvegicus [10])
COc1cc(-c2nnc3n([C@@H](C)c4ccc(F)cc4)cccc2-3)ccc1-n1cnc(C)c1	31.4 ×10⁻⁶ cm/s	97 nM	170 nM	33.8	inactive	inactive	inactive	205	inactive	2880 nM	0.9 ×10⁻⁶ cm/s	inactive	inactive
COc1cc(-c2nnc3n([C@@H](C)c4cc(F)cc(F)c4)cc(Cl)cc2-3)ccc1-n1cnc(C)c1		38 nM			inactive	inactive	inactive	6				inactive	inactive
COc1cc(-c2nnc3n([C@@H](C)c4cc(F)cc(F)c4)cccc2-3)ccc1-n1cnc(C)c1	32.4 ×10⁻⁶ cm/s	117 nM	140 nM	3.85	inactive	inactive	inactive	94	inactive	1960 nM	8.5 ×10⁻⁶ cm/s	inactive	inactive
CC[C@@H](c1cc(F)c(F)c(F)c1)n1cc(Cl)cc2c(-c3ccc(-n4cnc(C)c4)c(OC)c3)nnc1-2		43 nM	1610 nM		inactive	inactive	inactive	463	30%	7230 nM		inactive	inactive
COc1cc(-c2nnc3n([C@@H](CO)c4ccc(F)cc4)cc(Cl)cc2-3)ccc1-n1cnc(C)c1		168 nM	100 nM		inactive	inactive	inactive	119	inactive	2150 nM		inactive	inactive
CC[C@@H](c1ccc(F)cc1)n1cccc2c(-c3ccc(-n4cnc(C)c4)c(OC)c3)nnc1-2		140 nM			inactive	inactive	inactive	42				inactive	inactive
COc1cc(-c2nnc3n([C@@H](C)c4cc(F)c(F)c(F)c4)cc(Cl)cc2-3)ccc1-n1cnc(C)c1		107 nM	1220 nM		inactive	inactive	inactive	186	45%	5020 nM		inactive	inactive
COc1ccc(Cn2cccc3c(-c4ccc(-n5cnc(C)c5)c(OC)c4)nnc2-3)cc1		168 nM			inactive	inactive	inactive	119				inactive	inactive
COc1cc(-c2nnc3n([C@@H](C)c4cc(F)ccc4F)cc(Cl)cc2-3)ccc1-n1cnc(C)c1		71 nM	740 nM		inactive	inactive	inactive	151	24%	2520 nM		inactive	inactive
COc1cc(-c2nnc3n([C@@H](C)c4ccc(F)cc4)cc(C#N)cc2-3)ccc1-n1cnc(C)c1		172 nM			inactive	inactive	inactive	60				inactive	inactive
COc1cc(-c2nnc3n([C@@H](C)c4ccc(F)c(F)c4)cc(Cl)cc2-3)ccc1-n1cnc(C)c1		66 nM	880 nM		inactive	inactive	inactive	301	27%	6510 nM		inactive	inactive
COc1cc(-c2nnc3n([C@@H](C)c4ccc(F)cc4)cc(C)cc2-3)ccc1-n1cnc(C)c1	41.2 ×10⁻⁶ cm/s	85 nM		8.5	inactive	inactive	inactive	161	inactive		4.8 ×10⁻⁶ cm/s	inactive	inactive
COc1cc(-c2nnc3n([C@@H](C)c4ccc(F)cc4)cc(C(F)F)cc2-3)ccc1-n1cnc(C)c1		123 nM			inactive	inactive	inactive	52	inactive			inactive	inactive
COc1cc(-c2nnc3n([C@@H](C)c4ccc(F)cc4)cc(Cl)cc2-3)ccc1-n1cnc(C)c1		70 nM	920 nM		inactive	inactive	inactive	288	32%	2740 nM		inactive	inactive
COc1cc(-c2nnc3n([C@@H](C)c4ccc(F)cc4)cc(C(C)(F)F)cc2-3)ccc1-n1cnc(C)c1		143 nM			inactive	inactive	inactive	66	inactive	30 nM		inactive	inactive
COc1ccc(COCc2cc3c(-c4ccc(-n5cnc(C)c5)c(OC)c4)nnc-3n([C@@H](C)c3ccc(F)cc3)c2)cc1		182 nM			inactive	inactive	inactive	110				inactive	inactive
C=C(c1ccc(F)cc1)n1cc(Cl)cc2c(-c3ccc(-n4cnc(C)c4)c(OC)c3)nnc1-2		481 nM			inactive	inactive	inactive	42				inactive	inactive
COc1cc(-c2nnc3n([C@@H](C)c4ccc(F)cc4)cc(CF)cc2-3)ccc1-n1cnc(C)c1		634 nM			inactive	inactive	inactive	32				inactive	inactive
COc1cc(-c2nnc3n([C@@H](C)c4ccc(F)cc4)cc(CO)cc2-3)ccc1-n1cnc(C)c1		81 nM			inactive	inactive	inactive	248				inactive	inactive
COc1cc(-c2nnc3n([C@H](C)c4ccc(F)cc4)cccc2-3)ccc1-n1cnc(C)c1		332 nM			inactive	inactive	inactive	60				inactive	inactive
COc1cc(-c2nnc3n(C(CCS(C)(=O)=O)c4ccc(F)cc4)cc(Cl)cc2-3)ccc1-n1cnc(C)c1 (stereo unspecified)		316 nM			inactive	inactive	inactive	63				inactive	inactive
COc1cc(-c2nnc3n(C(C)c4ccc(F)cc4)cccc2-3)ccc1-n1cnc(C)c1 (racemic)		231 nM			inactive	inactive	inactive	87				inactive	inactive

— ChEMBL document CHEMBL1949654, “Discovery of a Potent Pyrazolopyridine Series of γ-Secretase Modulators” (ACS Med Chem Lett, 2011)
